Test results published in paper PMC6651613, “Identification and Characterization of trans-Isopentenyl Diphosphate Synthases Involved in Herbivory-Induced Volatile Terpene Formation in Populus trichocarpa” (Molecules, 2019).

Key:
Test in all cases: LC-MS/MS product analysis
Format in all cases: biochemical
Details in all cases: 50 uM IPP and 50 uM DMAPP, 10 mM MgCl2, 0.1 mM MnCl2, pH 7.2, 30 °C, 1 h
PtGPPS1.LSU = target: T1, PtGPPS1.LSU (Populus trichocarpa, UniProt A0A514TNQ6)
T1 construct: N-terminally truncated ORF (delta71, signal peptide removed), C-terminal His tag (pASK-IBA33+), E. coli TOP10, Ni-NTA purified; cloning primer encodes MPTFDFKSY

PtFPPS1 = target: T2, PtFPPS1 (Populus trichocarpa, UniProt A0A514TNK7)
T2 construct: full-length ORF, N-terminal His tag (pASK-IBA37+), E. coli TOP10, Ni-NTA purified; cloning primer encodes MADLKSTF
T2 sequence (A0A514TNK7 1-342): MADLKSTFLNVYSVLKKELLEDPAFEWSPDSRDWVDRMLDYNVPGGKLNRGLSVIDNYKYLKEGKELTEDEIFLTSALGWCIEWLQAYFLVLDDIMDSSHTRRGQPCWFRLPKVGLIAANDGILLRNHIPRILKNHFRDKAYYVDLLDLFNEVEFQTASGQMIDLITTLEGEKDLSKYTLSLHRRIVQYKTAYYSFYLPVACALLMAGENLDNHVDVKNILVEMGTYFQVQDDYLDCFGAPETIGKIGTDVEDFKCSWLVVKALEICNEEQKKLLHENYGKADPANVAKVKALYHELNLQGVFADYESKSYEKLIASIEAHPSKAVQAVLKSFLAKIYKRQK

PtGPPS2.LSU = target: T3, PtGPPS2.LSU (Populus trichocarpa, UniProt A0A514TNS4)
T3 construct: N-terminally truncated ORF (delta72, signal peptide removed), C-terminal His tag (pASK-IBA33+), E. coli TOP10, Ni-NTA purified; cloning primer encodes MPTFDFKSY

[1] = target: T4, PtGPPS1.LSU + PtGPPS.SSU1 (Populus trichocarpa, UniProt A0A514TNQ6)
T4 construct: equal amounts of separately purified LSU (delta71) and SSU1 (delta41) mixed; C-terminal His tags, E. coli TOP10; heterodimer proposed, not isolated; with Geranyl diphosphate synthase small subunit 1

[2] = target: T5, PtGPPS2.LSU + PtGPPS.SSU1 (Populus trichocarpa, UniProt A0A514TNS4)
T5 construct: separately purified LSU (delta72) and SSU1 (delta41) mixed; C-terminal His tags, E. coli TOP10; heterodimer proposed, not isolated; with Geranyl diphosphate synthase small subunit 1
T5 sequence (A0A514TNS4 71-366): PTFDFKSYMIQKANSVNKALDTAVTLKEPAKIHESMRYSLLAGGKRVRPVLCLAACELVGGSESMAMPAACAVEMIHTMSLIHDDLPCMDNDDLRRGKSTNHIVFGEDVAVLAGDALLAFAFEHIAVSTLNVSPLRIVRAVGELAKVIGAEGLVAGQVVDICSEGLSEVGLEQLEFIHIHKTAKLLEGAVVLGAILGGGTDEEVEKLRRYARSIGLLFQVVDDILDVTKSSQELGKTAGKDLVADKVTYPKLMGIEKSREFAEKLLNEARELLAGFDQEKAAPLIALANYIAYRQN
T5 sequence (A0A514TNK9 42-312 partner): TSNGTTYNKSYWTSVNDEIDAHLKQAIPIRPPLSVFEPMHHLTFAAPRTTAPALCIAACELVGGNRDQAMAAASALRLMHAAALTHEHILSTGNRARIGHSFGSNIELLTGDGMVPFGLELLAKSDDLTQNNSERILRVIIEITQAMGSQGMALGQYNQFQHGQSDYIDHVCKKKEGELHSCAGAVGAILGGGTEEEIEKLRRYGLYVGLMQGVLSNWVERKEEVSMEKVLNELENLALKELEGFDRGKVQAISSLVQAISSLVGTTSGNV

T4 sequence (A0A514TNQ6 70-365): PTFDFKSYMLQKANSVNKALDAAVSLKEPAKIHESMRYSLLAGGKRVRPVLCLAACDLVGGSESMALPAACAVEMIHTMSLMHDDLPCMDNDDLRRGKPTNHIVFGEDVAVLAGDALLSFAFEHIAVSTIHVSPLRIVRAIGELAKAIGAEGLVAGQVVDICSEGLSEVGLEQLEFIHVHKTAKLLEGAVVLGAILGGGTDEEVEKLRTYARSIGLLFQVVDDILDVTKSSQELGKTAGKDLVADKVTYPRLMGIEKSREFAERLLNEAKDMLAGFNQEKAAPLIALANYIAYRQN
T4 sequence (A0A514TNK9 42-312 partner): as the sequence (A0A514TNK9 42-312 partner) above
T1 sequence (A0A514TNQ6 70-365): as the sequence (A0A514TNQ6 70-365) above
T3 sequence (A0A514TNS4 71-366): as the sequence (A0A514TNS4 71-366) above

SMILES | LC-MS/MS product analysis (PtGPPS1.LSU) | LC-MS/MS product analysis (PtFPPS1) | LC-MS/MS product analysis (PtGPPS2.LSU) | LC-MS/MS product analysis [1] | LC-MS/MS product analysis [2]
CC(C)=CCOP(=O)(O)OP(=O)(O)O [DMAPP] | produced GPP and GGPP when tested with IPP and DMAPP as substrates | PtFPPS1 catalyzes the condensation of IPP and DMAPP to FPP and traces of GGPP | produced GPP and GGPP when tested with IPP and DMAPP as substrates | incubated with IPP and DMAPP either in the presence (black bars) or absence | incubated with IPP and DMAPP either in the presence (black bars) or absence
C=C(C)CCOP(=O)(O)OP(=O)(O)O [IPP] | produced GPP and GGPP when tested with IPP and DMAPP as substrates | PtFPPS1 catalyzes the condensation of IPP and DMAPP to FPP and traces of GGPP | produced GPP and GGPP when tested with IPP and DMAPP as substrates | incubated with IPP and DMAPP either in the presence (black bars) or absence | incubated with IPP and DMAPP either in the presence (black bars) or absence
